The text below walks through data of patent US11766434B2, “Pyrimidinone derivatives as CDC7 inhibitors” (Cancer Research Technology Limited, priority 2016, dated 2023).

In test [1] the target is Cdc7/ASK (Homo sapiens, UniProt O00311). The test can be described thus: Cdc7 biochemical assay Method 1: 384 well ELISA, MCM2 whole protein substrate, Phospho MCM2 (S53) antibody. The conditions noted are these: ATP 2 μM, 90 minutes, read-out: Biochemical method 1 (pIC50) (converted). Details: purchased. The gist of the method: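 Commercial Cdc7/ASK phosphorylates plate-bound MCM2 with 2 μM ATP in Tris pH 8.5/MgCl2/DTT, 4% DMSO, 90 min at room temperature. Phospho-MCM2 (S53) detected by antibody ELISA with AP/PNPP absorbance. Inhibition normalised to DMSO and no-enzyme controls; IC50 from curve fit.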
Chain of Cdc7/ASK (O00311 whole entry): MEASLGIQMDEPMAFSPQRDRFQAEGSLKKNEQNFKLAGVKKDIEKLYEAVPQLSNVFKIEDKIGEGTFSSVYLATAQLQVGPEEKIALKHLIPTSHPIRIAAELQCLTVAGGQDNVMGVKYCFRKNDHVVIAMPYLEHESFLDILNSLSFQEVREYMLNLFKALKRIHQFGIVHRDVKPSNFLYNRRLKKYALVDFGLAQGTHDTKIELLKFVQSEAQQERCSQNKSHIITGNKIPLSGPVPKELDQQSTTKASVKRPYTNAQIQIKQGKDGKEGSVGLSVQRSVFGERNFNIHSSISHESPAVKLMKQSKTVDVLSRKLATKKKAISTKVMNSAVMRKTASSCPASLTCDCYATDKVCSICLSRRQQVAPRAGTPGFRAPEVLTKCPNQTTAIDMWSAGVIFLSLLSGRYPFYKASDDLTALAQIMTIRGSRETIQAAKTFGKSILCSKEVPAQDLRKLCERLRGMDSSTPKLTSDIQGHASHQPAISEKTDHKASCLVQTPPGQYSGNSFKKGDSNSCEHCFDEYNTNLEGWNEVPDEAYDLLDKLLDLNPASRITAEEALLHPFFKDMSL
Chain of Cdc7/ASK (Q9UBU7 whole entry partner): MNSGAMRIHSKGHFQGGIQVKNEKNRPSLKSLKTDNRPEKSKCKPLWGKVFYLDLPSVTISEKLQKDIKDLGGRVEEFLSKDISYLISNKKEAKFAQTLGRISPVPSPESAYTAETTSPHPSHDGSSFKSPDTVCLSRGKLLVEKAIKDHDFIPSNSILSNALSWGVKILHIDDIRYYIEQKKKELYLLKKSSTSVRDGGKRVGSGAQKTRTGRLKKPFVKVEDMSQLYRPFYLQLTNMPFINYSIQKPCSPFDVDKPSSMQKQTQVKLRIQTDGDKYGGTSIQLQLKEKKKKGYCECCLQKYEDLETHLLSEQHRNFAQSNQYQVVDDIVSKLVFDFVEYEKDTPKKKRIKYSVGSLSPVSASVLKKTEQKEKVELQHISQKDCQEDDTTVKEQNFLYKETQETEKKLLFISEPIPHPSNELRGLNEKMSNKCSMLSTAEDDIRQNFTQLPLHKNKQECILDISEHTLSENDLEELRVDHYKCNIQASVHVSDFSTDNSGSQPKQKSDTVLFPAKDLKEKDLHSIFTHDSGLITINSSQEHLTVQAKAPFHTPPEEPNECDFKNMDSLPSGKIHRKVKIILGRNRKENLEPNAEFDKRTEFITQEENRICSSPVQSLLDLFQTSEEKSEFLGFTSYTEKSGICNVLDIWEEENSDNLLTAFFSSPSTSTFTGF
In general terms: In an ELISA, binding on a coated surface is turned into a signal by an enzyme label.

Test [2] deals with Cdc7/Dbf4 (Homo sapiens, UniProt O00311). In words: Cdc7 biochemical assay Method 2: Cdc7/Dbf4 Enzyme TR-FRET Assay measuring pS40MCM2. The conditions noted are these: pS40 MCM2 peptide, 1 μM ATP, 25° C., 120 minutes, read-out: Biochemical Method 2 (pIC50) (converted). The protocol: This protocol describes a method for assaying a compounds' ability to inhibit Cdc7 activity by measuring pS40MCM2 levels in a Cdc7/Dbf4 Enzyme TR-FRET Assay.
Chain of Cdc7/Dbf4 (O00311 whole entry): as the sequence (O00311 whole entry) above
Chain of Cdc7/Dbf4 (Q9UBU7 whole entry partner): as the sequence (Q9UBU7 whole entry partner) above
2.5 nM Cdc7/Dbf4 was incubated with 100 nM of biotin-labelled peptide 35-TDALTS(pS)PGRDLP in the presence of 1 μM ATP at 25° C. for 120 minutes. The phosphorylation of the peptide was detected using TR-FRET. Anti-Mcm2 (pS40) antibody, Terbium anti-rabbit secondary antibody and Streptavidin-Alexa Fluor488 form the detection system.

Test [3] has as its target T1, Cdc7 (Homo sapiens, UniProt O00311). The test can be described thus: Cdc7 cell pharmacodynamics assay Method 1: pS53MCM2 levels in HCT116 cells. Format: cell-based. Details: endogenous in cells. The conditions noted are these: 6 hours treatment, read-out: Biomarker Method 1 (pEC50) (converted). An excerpt: This protocol describes a method to investigate the inhibition of Cdc7 activity of compounds by measuring pS53MCM2 levels in cells after treatment.
• HCT116 cells (wild type P53 positive) • McCoys 5A media (PAA Laboratories Ltd, E15-022) • 10% FCS (Sera Laboratories International Ltd, EU000F Batch: 108005) • 100× L-Glutamine (Invitrogen, 25030-024) • D-PBS without CaCl2 and MgCl2 (Invitrogen, ref. 14190-094) • Trypsin/EDTA (Invitrogen 25300-054) • 2% BSA in PBS • Cell Extraction Buffer (Invitrogen FNN0011) • Protease inhibitor cocktail (Sigma P-2714) • PMSF 0.3M stock in DMSO (Sigma P7626) • Antibody—rabbit pMCM2 Ser53 (Bethyl #A300-756A) • Antibody—goat MCM2 (Bethyl #A300-122A) • Antibody—goat Anti Rabbit IgG HRP (Perbio Science UK Ltd 31462) • 1×PBS • FACE Wash buffer (0.02% Triton X100 in 1×PBS) • SuperSignal ELISA Pico Chemiluminescent Substrate (Perbio Science UK Ltd 37070) Method • 72 hours prior to the start of the experiment plate 1×10^6 HCT116 cells in a 150 cm^2 flask in complete McCoys 5A media (+10% FCS+1× L-glutamine). • Plate 20,000 HCT116 cells per well in standard TC treated 96 well plate in 100 μL complete McCoys 5A media. • Allow cells to settle overnight in incubator set at 37° C. and 5% CO2. • Remove intermediate plate from fridge and place at 37° C. overnight to allow to equilibrate. • Cell treatment: cell assay plate 100 μL; daughter to cell transfer volume 3.33 μL; daughter volume 45 μL; mother plate to daughter volume 5 μL. • Once all cells are treated remove the cells to the incubator and incubate for 6 hours. • Dilute the capture antibody (total MCM2 #A300-122A) 1 in 250 in the required volume of PBS (5 mL per assay plate) and add 50 μL to each well of a Hybond plate excluding wells 12E to 12H. In these wells add 50 μL PBS. Seal the plate and incubate at room temperature fora minimum of 2 hours. • Defrost aliquot of Invitrogen Cell Extraction Buffer (FNN0011) on ice and supplement with appropriate volume of both Sigma protease inhibitor cocktail (P-2714) and PMSF (final cone 1 mM from a […] in DMSO). • After the 6 hour cell treatment time tap out the media from the assay plates and place them in the −70° C. freezer for at least 5 minutes. • Remove plates from freezer and add 20 μL of ice cold complete lysis buffer on ice. Incubate cells for 30 minutes at 4° C. • Add 80 μL per well 2% BSA. • Transfer 80 μL from the lysis plate to the same wells in the capture/ELISA plate. Cover with plate seal and incubate plates overnight at 4° C. • Wash plates with PBS, remove any residual remaining liquid and add 50 μL per well of pMCM2 Ser53 antibody (#A300-756A) diluted 1 in 100 in 2% BSA. Cover plate and incubate at room temperature for 2 hours with gentle shaking. • Wash plates with PBS, remove any residual remaining liquid and Incubate with 50 μL goat anti rabbit antibody (1 in 800 dilution in 2% BSA) for 1 hour at room temperature. • Wash plates with PBS, remove any residual remaining liquid and add 50 μL mixed SuperSignal Pico substrate. • Incubate each plate for 5 minutes at room temperature shielding the plates from direct light (with a cover plate). Read plates with the luminescent detection. Method 2

Test [4] deals with T1, Cdc7. In words: Cdc7 cell pharmacodynamics assay Method 2: pS40MCM2 levels in HCT116 cells. The format is cell-based. The arrangement: endogenous in cells. The note with it: 18 hours treatment, read-out: Biomarker Method 2 (pEC50) (converted). The source says: This protocol describes a method to investigate the inhibition of Cdc7 activity by measuring pS40MCM2 levels in cells, after treatment with compounds.
• HCT116 cells (ATCC, #CCL-247) • McCoys 5A with L-glutamine (Cellgro, #10-050-CV) • 10% FCS (Cellgro, #35-010-CV) • D-PBS without CaCl2 and MgCl2 (Cellgro, #21-031-CV) • Trypsin/EDTA (Cellgro, #25-052-CL) • BSA (Calbiochem, 126593) • Cell Extraction Buffer (Invitrogen FNN0011) • Protease inhibitor cocktail (Sigma P-2714) • PMSF 0.3M stock in DMSO (Sigma P7626) • Antibody—rabbit pMCM2 Ser40 (Abeam, AB133243) • Antibody—goat MCM2 (Bethyl #A300-122A) • Antibody—goat Anti Rabbit IgG HRP (Thermo, 31462) • SuperSignal ELISA Pico Chemiluminescent Substrate (Perbio Science UK Ltd 37069) • 10×PBS (Growcells, MRGF-6236) • Triton X100 (Sigma, P-T8787) • DMSO (Fisher, D128-1) • 2-Propanol (J. T. Baker, 9095-03) Method • Seed 1×10^6 HCT116 cells into each of two 175 cm^2 flask containing 30 mL Cell Growth Media and incubate at 37° C., 5% CO2 for 3 days. • Harvest the cells from one T175 cm^2 flask and count. • Dilute with Cell Growth Media to a cell density of 2×10^5. Dispense 100 μL to each well (20,000 HCT116 cells/well) of TC treated 96-well plate(s). • Allow cells to settle overnight in incubator set at 37° C. and 5% CO2. • Cell treatment: Transfer 0.25 μL/well from the compound plate to the wells of the cell plate(s). This is a 1:400 dilution of compound in the assay. • Once all cells are treated place the cells back to the incubator and incubate for 18 hours. • Dilute the capture antibody (total MCM2 #A300-122A) 1 in 250 in the required volume of PBS (5 mL per assay plate, plus 5 mL for dead volume) and add 50 μL to each well of a Hybond plate except wells A12 & B12. Seal the plate and incubate at room temperature fora minimum of 2 hours. • Defrost aliquot of Invitrogen Cell Extraction Buffer (FNN0011) on ice and supplement with appropriate volume of both Sigma protease inhibitor cocktail (P-2714) and PMSF (final cone 1 mM from a 1 M stock in DMSO). • After the 6 hour or 18 hour cell treatment time, tap out the media from the assay plates and place them in the −70° C. freezer for at least 5 minutes. • Flick out the remaining liquid in the previously prepared capture Ab plate(s) and add 200 μL 2% BSA per well. Incubate for 1 hour at room temperature. • Remove plates from freezer and add 20 μL of ice cold complete lysis buffer. Incubate cells for 30 minutes at 4° C. • Add 30 μL per well 2% BSA • At the end of the 1 hour incubation, wash the Capture/ELISA plate(s) with Wash Buffer on the BioTek plate washer. • Transfer 40 μL per well of the lysis plate(s) to the same wells in the Capture/ELISA plate. Incubate cells overnight at 4° C. • At the end of the overnight incubation, wash the ELISA plate(s) with Wash Buffer on BioTek plate washer. • Prepare Detection Antibody Buffer and dispense 50 μL to all wells of ELISA plate(s) except wells G1 & H1. Cover plate and incubate at room temperature for 2 hours with gentle shaking. • At the end of the 2 hour incubation, wash the ELISA plate(s) with Wash Buffer on the BioTek plate washer. • Prepare the Conjugated Antibody Buffer and dispense 50 μL to all wells of ELISA plate(s). • Cover the plate and incubate at room temperature for 1 hour with gentle shaking. • At the end of the 1 hour incubation, wash the ELISA plate(s) with Wash Buffer on the BioTek plate washer. • Prepare Substrate Buffer and dispense 50 μL to all wells of ELISA plate(s). • Incubate for a minimum of 10 minutes and read plates on the EnVision 2100 Multilabel Reader (Mirror: Luminescence (404) & Luminescence 700 (212); Measurement Height: 6.5 mm; Measurement Time: 0.2 s). Method 3

T1 sequence (O00311 whole entry): as the sequence (O00311 whole entry) above
T1 sequence (Q9UBU7 whole entry partner): as the sequence (Q9UBU7 whole entry partner) above

Take `Cc1[nH]ncc1-c1nc(C2CCOCC2)c(Cl)c(=O)[nH]1` [Compound 16, 5-chloro-2-(3-methyl-1H-pyrazol-4-yl)-4-tetrahydropyran-4-yl-1H-pyrimidin-6-one]: the IC50 in test [1] is 2.75 nM; in test [2], 7.24 nM.

For the compound `C[C@@H]1COCCN1c1nc(-c2cnn3ccccc23)[nH]c(=O)c1Cl` [Compound 54, 5-chloro-4-[(3R)-3-methylmorpholin-4-yl]-2-pyrazolo[1,5-a]pyridin-3-yl-1H-pyrimidin-6-one], the IC50 in test [2] was 72.4 nM. As to `Cc1ncsc1-c1nc(N2CCN[C@@H](C(C)C)C2)c(Cl)c(=O)[nH]1` [Compound 39, 5-chloro-4-[(3S)-3-isopropylpiperazin-1-yl]-2-(4-methylthiazol-5-yl)-1H-pyrimidin-6-one], the EC50 in test [3] is 339 nM. In addition, the IC50 in test [1] was 21.4 nM; in test [2], 7.41 nM. Regarding `Cc1[nH]ncc1-c1nc(N2CCOCC2)c(Cl)c(=O)[nH]1` [Compound 51, 5-chloro-2-(5-methyl-1H-pyrazol-4-yl)-4-morpholino-1H-pyrimidin-6-one], in test [2], the IC50 was 5.89 nM. As for `CC1(C)CNCCN1c1nc(-c2cn[nH]c2C(F)(F)F)[nH]c(=O)c1Cl` [Compound 46, 5-chloro-4-(2,2-dimethylpiperazin-1-yl)-2-[5-(trifluoromethyl)-1H-pyrazol-4-yl]-1H-pyrimidin-6-one], the IC50 in test [2] is 1.66 nM. Also, the EC50 in test [4] is 151 nM. The matching figures for `Cc1[nH]ncc1-c1nc(N2CCNC[C@H]2C)c(Cl)c(=O)[nH]1` [Compound 48, 5-chloro-4-[(2R)-2-methylpiperazin-1-yl]-2-(5-methyl-1H-pyrazol-4-yl)-1H-pyrimidin-6-one]: 2.24 nM and 457 nM. On to `CC1CNCCN1c1nc(-c2c[nH]c3ncccc23)[nH]c(=O)c1Cl` (stereo in doubt) [Compound 55, 5-chloro-4-[(2R)-2-methylpiperazin-1-yl]-2-(1H-pyrrolo[2,3-b]pyridin-3-yl)-1H-pyrimidin-6-one 2,2,2-trifluoroacetic acid], for which the EC50 in test [4] was 100 nM.
